The values that follow are results of earlier work, collected in patent publication US9434994B2, “Methods for prediction of clinical outcome to epidermal growth factor receptor inhibitors by non-small cell lung cancer patients” (The Regents of the University of Colorado, a body corporate, priority 2004, dated 2016).

In series [1] the test system is NSCLC patients. Particulars: erlotinib versus placebo, second or third line; cited from earlier work.
Series [2] has as its system chemotherapy resistant NSCLC patients. Particulars: single agent; cited from earlier work.
In series [3] the test system is advanced BAC patients. Particulars: cited from earlier work.

In the case of `C#Cc1cccc(Nc2ncnc3cc(OCCOC)c(OCCOC)cc23)c1` [erlotinib], the “Hazard Ratio, survival” value in series [1] is given as 0.73. The response rates entry in series [2] was “about 10%”.

For `CC(=O)O[C@H]1C(=O)[C@@]2(C)[C@H]([C@H](OC(=O)c3ccccc3)[C@]3(O)C[C@H](OC(=O)[C@H](O)[C@@H](NC(=O)c4ccccc4)c4ccccc4)C(C)=C1C3(C)C)[C@]1(OC(C)=O)CO[C@@H]1C[C@@H]2O` [paclitaxel], the Median Survival in series [3] was 12 months.
